From PMC3823594, “Conformational Changes Underlying Pore Dilation in the Cytoplasmic Domain of Mammalian Inward Rectifier K^+ Channels” (PLoS ONE, 2013)
Substitutions are numbered along the chain they refer to.

Key:
Assay in all cases: Two-electrode voltage clamp, ACh-dependent (m2R-dependent) K+ current activation
Kir3.2 E236Q = target: T1, Kir3.2 E236Q (Mus musculus, UniProt P48542, E236Q); type: cell-based; conditions: Kir3.2 E236Q with porcine m2R in Xenopus oocytes; −120 mV; Hill equation fit
T1 sequence (P48542 19-425 E236Q): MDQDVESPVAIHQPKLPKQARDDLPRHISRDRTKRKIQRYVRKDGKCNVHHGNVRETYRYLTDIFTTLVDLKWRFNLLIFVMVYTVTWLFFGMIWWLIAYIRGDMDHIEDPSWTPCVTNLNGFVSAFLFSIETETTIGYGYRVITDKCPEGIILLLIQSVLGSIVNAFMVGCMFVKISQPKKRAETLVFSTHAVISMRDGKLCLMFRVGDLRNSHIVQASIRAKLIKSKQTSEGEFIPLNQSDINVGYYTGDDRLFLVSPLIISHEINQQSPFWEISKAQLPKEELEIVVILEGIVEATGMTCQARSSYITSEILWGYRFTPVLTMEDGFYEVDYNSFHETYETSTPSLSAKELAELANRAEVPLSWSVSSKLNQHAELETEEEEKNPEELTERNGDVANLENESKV
T1 sequence (P06199 1-466 partner): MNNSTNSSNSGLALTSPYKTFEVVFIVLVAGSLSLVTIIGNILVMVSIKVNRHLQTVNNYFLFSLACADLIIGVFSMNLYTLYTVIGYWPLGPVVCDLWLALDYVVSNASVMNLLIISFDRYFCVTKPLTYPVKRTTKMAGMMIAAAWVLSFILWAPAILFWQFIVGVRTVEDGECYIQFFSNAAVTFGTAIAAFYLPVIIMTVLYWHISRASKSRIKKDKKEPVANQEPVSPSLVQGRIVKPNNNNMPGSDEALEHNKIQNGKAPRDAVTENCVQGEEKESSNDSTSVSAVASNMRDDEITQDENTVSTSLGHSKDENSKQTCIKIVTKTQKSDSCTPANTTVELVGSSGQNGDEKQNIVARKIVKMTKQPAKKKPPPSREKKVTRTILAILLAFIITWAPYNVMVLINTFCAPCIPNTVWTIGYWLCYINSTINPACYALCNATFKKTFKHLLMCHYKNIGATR

Kir3.2 M313R = target: T2, Kir3.2 M313R (Mus musculus, UniProt P48542, I313R); type: cell-based; conditions: Kir3.2 M313R with porcine m2R in Xenopus oocytes; −120 mV; Hill equation fit, min not zero
T2 sequence (P48542 19-425 I313R): T1 sequence (P48542 19-425 E236Q) with Q218E, I295R
T2 sequence (P06199 1-466 partner): T1 sequence (P06199 1-466 partner)

Kir3.2 M313D = type: cell-based, mouse; conditions: Kir3.2 M313D with porcine m2R in Xenopus oocytes; −120 mV; Hill equation fit, min not zero
Text: (§1) The mouse Kir3.2d isoform was subjected to functional analyses. The amino acid numbers correspond to the longest mouse Kir3.2 isoform. Point mutations were introduced using the QuikChange site-directed mutagenesis kit (Stratagene, La Jolla, CA), and the presence of the mutations was confirmed by direct DNA sequencing. The care of Xenopus laevis was in accordance with the guideline of the Institute of Experimental Animal Sciences, Osaka University. The protocol was approved by the Animal Experiment Committee of Osaka University. The frogs were deeply anesthetized by immersing in 0.2% tricaine methanesulfonate for 20 min at 18°C. A portion of an ovary lobe was surgically removed and incubated with collagenase to remove follicular cells. The oocytes were injected with the cRNAs of Kir3.2 and porcine m2-muscarinic receptor (m2R), and maintained in modified Barth’s solution at 18°C with daily solution changes. Electrophysiological studies were undertaken 48–72 h later at room temperature (20–25°C). Two-electrode voltage-clamp recordings from oocytes were performed using a GeneClamp 500B amplifier (Axon Instruments, Sunnyvale, CA). […] The bath solution contained 40 mM KCl, 50 mM NaCl, 3 mM MgCl2, 0.15 mM niflumic acid, and 5 mM HEPES-KOH (pH 7.4). The currents were recorded in the absence or presence of various concentrations of acetylcholine (ACh). Ba^2+ (3 mM) was added at the end of the recording to estimate the endogenous leak current. The data are expressed as mean values ± standard error of the mean. For the quantitative estimation of ACh-dependent current responses of the wild-type (WT) and mutant channels, the current amplitudes at the end of test pulses at each ACh concentration ([ACh]) were fitted using the following equation:
(§2) I=min+[(max−min)/(1+(EC50/[ACh])^nH)]
(§3) where I is the current amplitude measured at the [ACh], n H is the Hill coefficient, and EC50 is the concentration that induces 50% of the maximal response. […] The values of n H and EC50 were calculated using a non-linear least-squares best fit (SigmaPlot 9; Systat Software). Statistical analyses were performed by one-way ANOVA with post-hoc tests.

Kir3.2 M313Q = type: cell-based, mouse; conditions: Kir3.2 M313Q with porcine m2R in Xenopus oocytes; −120 mV; Hill equation fit
Text: as §1, §2, §3

Compound: CC(=O)OCC[N+](C)(C)C [ACh, acetylcholine]
- Hill coefficient (Kir3.2 E236Q): 0.75 ± 0.02
- Hill coefficient (Kir3.2 M313R): 0.52 ± 0.08
- EC50 (Kir3.2 M313D): 130 ± 10 nM
- Hill coefficient (Kir3.2 M313D): 0.73 ± 0.06
- EC50 (Kir3.2 M313Q): 50 ± 5 nM
- Hill coefficient (Kir3.2 M313Q): 0.81 ± 0.04
